From publication PMC3315515, “Identification of Novel Mt-Guab2 Inhibitor Series Active against M. tuberculosis” (PLoS ONE, 2012)
Converted amounts (≈) assume the structure as drawn. “And” between values parts separate entries of the source, which are not always exact repeats. Identical values can stand only once. “Also recorded” adds a separate entry of the source. Like-named read-outs stand apart in the source and are kept apart here.

How the values were obtained:
Mt-GuaB2 = Mt-GuaB2 (Mycobacterium tuberculosis, UniProt P9WKI7); experiment: Mt-GuaB2 spectrophotometric assay (NADH formation at 340 nm), inhibitor kinetics; format: biochemical
Sequence of Mt-GuaB2 (P9WKI7 whole entry, looked up): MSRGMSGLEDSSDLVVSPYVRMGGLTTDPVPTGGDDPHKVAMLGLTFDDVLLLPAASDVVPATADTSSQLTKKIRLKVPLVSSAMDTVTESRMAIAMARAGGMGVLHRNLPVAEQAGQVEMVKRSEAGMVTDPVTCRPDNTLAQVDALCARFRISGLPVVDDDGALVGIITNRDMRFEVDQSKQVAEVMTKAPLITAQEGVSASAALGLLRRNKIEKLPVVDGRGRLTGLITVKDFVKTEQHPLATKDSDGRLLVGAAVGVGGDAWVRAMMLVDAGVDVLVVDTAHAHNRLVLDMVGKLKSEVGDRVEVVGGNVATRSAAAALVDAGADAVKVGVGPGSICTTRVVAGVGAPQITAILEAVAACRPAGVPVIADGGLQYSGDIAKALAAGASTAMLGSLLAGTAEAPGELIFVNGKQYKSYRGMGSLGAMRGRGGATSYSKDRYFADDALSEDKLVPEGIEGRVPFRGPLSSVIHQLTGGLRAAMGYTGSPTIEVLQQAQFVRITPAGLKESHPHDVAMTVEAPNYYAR

M. tuberculosis H37Rv = conditions: cited from earlier work
M. smegmatis mc^2 155 = experiment: microbe, parasite or virus in culture; format: cell-based; conditions: for M. smeg MIC90: Table 2, highest concentration tested 128 µg/ml
[1] = tested on: M. tuberculosis Erdman strain; conditions: for Log 10 Protection, lung / Log 10 Protection, spleen: versus untreated controls d24, INH 25, 7759844 300 mg/kg/day
S. pyogenes IMPDH = conditions: ref [29], [34]; cited from earlier work
[2] = tested on: NC(=O)c1ccc[n+]([C@@H]2O[C@H](COP(=O)([O-])OP(=O)(O)OC[C@H]3O[C@@H](n4cnc5c(N)ncnc54)[C@H](O)[C@@H]3O)[C@@H](O)[C@H]2O)c1; experiment: purified protein, by the assay type; conditions: other: variable substrate, fixed saturating co-substrate, 200 µl assay; pH 8.5; 37.0 °C
[3] = acute maximum tolerated dose (MTD) test; conditions: single dose 100, 300, 500 mg/kg by gavage in 0.5% methyl cellulose, seven days observation, C57BL/6 mice
M. smegmatis = experiment: bactericidal activity against M. smegmatis (colony counts after 24 hours exposure); format: cell-based; conditions: Mycolicibacterium smegmatis, at least 99% reduction of viable counts, read-out: minimum bactericidal concentration (MBC)
M. smegmatis pVV16 = experiment: MIC of M. smegmatis with empty pVV16 vector control; format: cell-based; conditions: Mycolicibacterium smegmatis, Figure 4, vector alone control
[4] = tested on: M. smegmatis overexpressing Mt-GuaB2; experiment: microbe, parasite or virus in culture; format: cell-based
[5] = Table 2, varied IMP, fixed saturating NAD+ 2.8 mM
[6] = Table 2, Life Chemicals set, values without footnote a, previous screens ref [35]–[37]
[7] = Table 2, values with footnote a, ref Reynolds et al., 2011

With `CC(C)c1ccc(OCC(=O)Nc2nccs2)cc1` [F1685-0077] as the compound, how does the “IMP αK i” value (Mt-GuaB2; [5]) read?
Its value is 229.3 µM.

What about the “M. tb MIC90” value (M. tuberculosis H37Rv; [6]) of the same compound?
Its value is 6.88 µg/mL.

And the “M. smeg MIC90” value (M. smegmatis mc^2 155; TSB agar, 37°C, 3 days)?
The value was over 128 µg/mL.

Which “Log 10 Protection, lung” value ([1]; 300 mg/kg/day) does the source give for `NNC(=O)c1ccncc1` [Isoniazid, isoniazid, reference compound] here?
Its value is 2.7 log10 protection units.

What about the “Log 10 Protection, lung” value ([1]; listed as INH, 300 mg/kg/day) of the same compound?
The value was 2.70 log10 protection units.

And the “Log 10 Protection, spleen” value ([1]; spleen, 300 mg/kg/day)?
The value was 4.0 log10 protection units.

And the “Log 10 Protection, spleen” value ([1]; spleen, listed as INH, 300 mg/kg/day)?
The value was 4.04 log10 protection units.

Which “IMP αK i” value (Mt-GuaB2; [5]) does the source give for `CCOc1cc(-c2nnc(NC(=O)c3cc4ccccc4cc3OC)o2)cc(OCC)c1OCC` [F2517-0198] here?
Its value is 19.1 µM.

And the “M. tb MIC90” value (M. tuberculosis H37Rv; [6])?
Its value is 2.68 µg/mL.

And the “M. smeg MIC90” value (M. smegmatis mc^2 155; TSB agar, 37°C, 3 days)?
The value was over 128 µg/mL.

With `COc1cc2ccccc2cc1C(=O)Nc1nnc(-c2ccc(F)cc2)o1` [F1374-0205] as the compound, how does the “IMP αK i” value (Mt-GuaB2; [5]) read?
The value was 35.3 µM.

And the “M. tb MIC90” value (M. tuberculosis H37Rv; [6])?
Its value is 5.59 µg/mL.

And the “M. smeg MIC90” value (M. smegmatis mc^2 155; TSB agar, 37°C, 3 days)?
Its value is over 128 µg/mL.

For `Cc1ccc(C)c(-c2nnc(NC(=O)c3cccc4ccccc34)o2)c1` [F2518-0386], which “IMP αK i” value (Mt-GuaB2; [5]) is on record?
The value was 22.6 µM.

What about the “M. tb MIC90” value (M. tuberculosis H37Rv; [7]) of the same compound?
Its value is 0.41 µg/ml and 0.41 ^a µg/ml.

With `NC(=O)c1ccc[n+]([C@@H]2O[C@H](COP(=O)([O-])OP(=O)(O)OC[C@H]3O[C@@H](n4cnc5c(N)ncnc54)[C@H](O)[C@@H]3O)[C@@H](O)[C@H]2O)c1` [NAD^+, nicotinamide adenine dinucleotide] as the compound, how does the Km (S. pyogenes IMPDH) read?
The Km was about 1180 µM.

With `O=C(CS(=O)(=O)c1ccccc1)Nc1nc(-c2ccc3c(c2)CCCC3)cs1` [F2536-1573] as the compound, how does the “IMP αK i” value (Mt-GuaB2; [5]) read?
Its value is 79.0 µM.

What about the “M. tb MIC90” value (M. tuberculosis H37Rv; [6]) of the same compound?
The value was 1.02 µg/mL.

And the “M. smeg MIC90” value (M. smegmatis mc^2 155; TSB agar, 37°C, 3 days)?
The value was over 128 µg/mL.

What does the source list for `Cc1ccc(C)c(-c2nnc(NC(=O)C3COc4ccccc4O3)o2)c1` (centres unmarked) [F2518-0401]?
IMP αK i (Mt-GuaB2; [5]): 501.9 µM; M. tb MIC90 (M. tuberculosis H37Rv; [6]): 1.18 µg/mL; M. smeg MIC90 (M. smegmatis mc^2 155; TSB agar, 37°C, 3 days): 16 µg/mL

With `O=C(Nc1nnc(-c2ccc(Cl)s2)o1)c1nc2ccccc2s1` [F1374-1083] as the compound, how does the “IMP αK i” value (Mt-GuaB2; [5]) read?
Its value is 4.86 µM.

And the “M. tb MIC90” value (M. tuberculosis H37Rv; [6])?
Its value is 4.81 µg/mL.

What about the “M. smeg MIC90” value (M. smegmatis mc^2 155; TSB agar, 37°C, 3 days) of the same compound?
Its value is over 128 µg/mL.

For `O=C(Nc1nnc(-c2cccs2)o1)c1nc2ccccc2s1` [F1374-0978], which “IMP αK i” value (Mt-GuaB2; [5]) is on record?
Its value is 28.3 µM.

What about the “M. tb MIC90” value (M. tuberculosis H37Rv; [7]) of the same compound?
The value was 2.98 ^a µg/ml.

What about the “M. smeg MIC90” value (M. smegmatis mc^2 155; TSB agar, 37°C, 3 days) of the same compound?
The value was over 128 µg/mL.

For “Mt-GuaB2 (Mycobacterium tuberculosis H37Rv)”, which Km [2] is on record?
Its Km is 699.4 ± 63.70 µM.

Which results are given for `Cc1ccc(-c2nnc(NC(=O)COc3ccccc3)o2)c(C)c1` [F2518-0274]?
IMP αK i (Mt-GuaB2; [5]): 765.4 µM; M. tb MIC90 (M. tuberculosis H37Rv; [6]): 5.50 µg/mL; M. smeg MIC90 (M. smegmatis mc^2 155; TSB agar, 37°C, 3 days): 20 µg/mL

Which “IMP αK i” value (Mt-GuaB2; [5]) does the source give for `Cc1ccc(-c2nnc(NC(=O)c3nc4ccccc4s3)o2)c(C)c1` [F2518-0183] here?
The value was 57.1 µM.

What about the “M. tb MIC90” value (M. tuberculosis H37Rv; [7]) of the same compound?
Its value is 1.76 ^a µg/ml.

And the “M. smeg MIC90” value (M. smegmatis mc^2 155; TSB agar, 37°C, 3 days)?
Its value is over 128 µg/mL.

With `O=C(Nc1nnc(-c2ccccc2)o1)c1cc(-c2cccs2)nc2ccccc12` [F1374-0885] as the compound, how does the “IMP αK i” value (Mt-GuaB2; [5]) read?
The value was 19.0 µM.

And the “M. tb MIC90” value (M. tuberculosis H37Rv; [6])?
Its value is 0.72 µg/mL.

And the “M. smeg MIC90” value (M. smegmatis mc^2 155; TSB agar, 37°C, 3 days)?
The value was 2 µg/mL.

For `COc1cc2ccccc2cc1C(=O)Nc1nnc(-c2cc(C)ccc2C)o1` [F2518-0413], which “IMP αK i” value (Mt-GuaB2; [5]) is on record?
Its value is 36.4 µM.

What about the “M. tb MIC90” value (M. tuberculosis H37Rv; [6]) of the same compound?
The value was 1.23 µg/mL.

What about the “M. smeg MIC90” value (M. smegmatis mc^2 155; TSB agar, 37°C, 3 days) of the same compound?
The value was over 128 µg/mL.

With `COc1ccccc1-c1nnc(NC(=O)c2sc3ccccc3c2Cl)o1` [F1374-0253] as the compound, how does the “pattern of inhibition with respect to IMP” value (Mt-GuaB2) read?
The value was “uncompetitive inhibition”.

What about the “pattern of inhibition with respect to NAD+” value (Mt-GuaB2) of the same compound?
Its value is “noncompetitive inhibition”.

And the “pattern of inhibition with respect to NAD” value (Mt-GuaB2; Table 2)?
Its value is “NC ((NC) Noncompetitive)”.

And the “IMP αK i” value (Mt-GuaB2; [5])?
The value was 11.2 µM.

What about the Ki (Mt-GuaB2; Table 2, varied NAD+, fixed saturating IMP […], read-out: NAD K i) of the same compound?
The Ki was 435 µM.

What about the “M. tb MIC90” value (M. tuberculosis H37Rv; [6]) of the same compound?
Its value is 5.30 µg/mL.

And the “M. smeg MIC90” value (M. smegmatis mc^2 155; TSB agar, 37°C, 3 days)?
Its value is over 128 µg/mL.

For `COc1ccc(OC(C)C(=O)Nc2ccc(I)cc2)cc1` (centres unmarked) [compound 7759844], which “IMP αK i” value (Mt-GuaB2; Table 1, varied IMP, fixed saturating NAD+ 2.8 mM) is on record?
Its value is 0.603 µM.

What about the “IMP αK i” value (Mt-GuaB2; Table 3, analogs of lead scaffold) of the same compound?
The value was 0.603 µM.

And the “K i values” (Mt-GuaB2; with respect to both substrates IMP and NAD+)?
The value was “nanomolar range”.

What about the “tolerability, acute single dose” value [3] of the same compound?
The value was “no dose related adverse effects; also recorded: well tolerated with no acute adverse effects; also recorded: not toxic”.

And the “M. tb MIC90” value (M. tuberculosis H37Rv; Table 1, Chembridge compounds, M. tuberculosis H37Rv, previous screens ref [35]–[37])?
Its value is 0.63 µg/mL.

What about the “M. tb MIC90” value (M. tuberculosis H37Rv; Table 3, analogs of lead scaffold, previous screens ref [35]–[37]) of the same compound?
Its value is 0.633 µg/mL.

What about the MBC (M. smegmatis) of the same compound?
The MBC was 32 µg/mL (≈ 80.6 µM).

And the MIC90 (M. smegmatis mc^2 155; Mycolicibacterium smegmatis, MC^2155, 72 h, Table 1, TSB agar, 37°C, 3 days, read-out: M. smeg MIC90)?
The MIC90 was 8 µg/mL (≈ 20.1 µM).

What about the MIC99 (M. smegmatis mc^2 155; Mycolicibacterium smegmatis, MC^2155, Figure 4, M. smegmatis mc^2 155) of the same compound?
The MIC99 was 8 µg/mL (≈ 20.1 µM).

What about the MIC99 (M. smegmatis pVV16) of the same compound?
Its MIC99 is 8 µg/mL.

What about the MIC99 ([4]; Mycolicibacterium smegmatis, Figure 4, Mt-GuaB2 overexpression construct in pVV16) of the same compound?
Its MIC99 is 48 µg/mL (≈ 121 µM).

What about the “increase in MIC of Mt-GuaB2 overexpressing strain” value ([4]; compared with pVV16 vector control and wild type M. smegmatis) of the same compound?
The value was 6 fold.

And the “Log 10 Protection, spleen” value ([1]; spleen)?
The value was 0.84 log10 protection units.

And the Activity ([1]; spleen, 300 mg/kg/day)?
The Activity was “slightly active”.

For `Cc1ccc(C)c(-c2nnc(NC(=O)COc3ccccc3)o2)c1` [F2518-0418], which “IMP αK i” value (Mt-GuaB2; [5]) is on record?
Its value is 328.7 µM.

And the “M. tb MIC90” value (M. tuberculosis H37Rv; [6])?
Its value is 2.24 µg/mL.

What about the “M. smeg MIC90” value (M. smegmatis mc^2 155; TSB agar, 37°C, 3 days) of the same compound?
The value was 32 µg/mL.

With `O=C(Nc1nnc(-c2ccccc2Cl)o1)c1nc2ccccc2s1` [F1374-0033] as the compound, how does the “IMP αK i” value (Mt-GuaB2; [5]) read?
Its value is 60.9 µM.

What about the “M. tb MIC90” value (M. tuberculosis H37Rv; [6]) of the same compound?
Its value is 1.75 µg/mL.

What about the “M. smeg MIC90” value (M. smegmatis mc^2 155; TSB agar, 37°C, 3 days) of the same compound?
Its value is 8 µg/mL.

What does the source list for `O=C(Nc1nnc(-c2ccc(Br)cc2)o1)c1sc2ccccc2c1Cl` [F2518-0484]?
IMP αK i (Mt-GuaB2; [5]): 35.5 µM; M. tb MIC90 (M. tuberculosis H37Rv; [6]): 6.70 µg/mL; M. smeg MIC90 (M. smegmatis mc^2 155; TSB agar, 37°C, 3 days): 3 µg/mL
